Results from PubChem BioAssay (NCI).
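Values below derive from 48-hour exposures of cells grown in 96-well plates, with endpoints linearly interpolated between the two concentrations bracketing the appropriate inhibition level. TGI: concentration producing complete growth inhibition.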

Legend:
Assay in all cases: NCI-60 cell line screen, 48 h
HL-60(TB) leukemia = tested on: HL-60(TB) leukemia
M14 melanoma = tested on: M14 melanoma
NCI/ADR-RES ovarian = tested on: NCI/ADR-RES ovarian
UACC-257 melanoma = tested on: UACC-257 melanoma
786-0 renal = tested on: 786-0 renal
HS 578T breast = tested on: HS 578T breast
SNB-19 CNS = tested on: SNB-19 CNS
BT-549 breast = tested on: BT-549 breast
MCF7 breast = tested on: MCF7 breast
MDA-N = tested on: MDA-N
CAKI-1 renal = tested on: CAKI-1 renal

Structure (SMILES) | TGI (HL-60(TB) leukemia) [µM] | TGI (M14 melanoma) [µM] | TGI (NCI/ADR-RES ovarian) [µM] | TGI (UACC-257 melanoma) [µM] | TGI (786-0 renal) [µM] | TGI (HS 578T breast) [µM] | TGI (SNB-19 CNS) [µM] | TGI (BT-549 breast) [µM] | TGI (MCF7 breast) [µM] | TGI (MDA-N) [µM] | TGI (CAKI-1 renal) [µM]
COC(=O)C1=C(OC)C(=P2(c3ccccc3)CC(c3ccccc3)=C2c2ccccc2)C(C(=O)OC)=C1C(=O)OC (stereo not given) | 3.22 | > 100 | > 100 | > 100 | > 100 | > 100 | > 100 | > 100 | > 82.6 | > 100 | > 93.6
Cc1cccc(C)c1NC(=O)C(=O)CC(=O)c1sc(Nc2c(C)cccc2C)nc1C | > 100 | > 100 | > 100 | > 100 | > 100 | > 100 | > 100 | > 100 | > 100 | > 100 | > 100
C=C1CC[C@@H]2[C@](C)(COC(=O)CCC(=O)OC)CCC[C@@]2(C)[C@@H]1CCC1=CC(=O)OC1 | 51.2 | > 100 | > 100 | > 100 | > 100 | > 100 | > 100 | > 100 | > 100 | > 100 | 81.3
COC(=O)c1ccc(CCC2=CC(=O)C=CC2=O)cc1 | 4.79 | 32.4 | 61.2 | 22.5 | 5.58 | 75.2 | > 56.2 | 24.4 | 30 | 27.6 | 13.6
CCc1nc(N)nc(N)c1-c1ccc(N2CCOCC2)c(N=[N+]=[N-])c1 | > 79.2 | > 100 | > 100 | > 100 | > 100 | > 100 | > 78.4 | > 100 | > 100 | > 100 | > 100
N#CCc1nc(-c2cc3ccccc3oc2=O)cs1 | > 100 | > 100 | > 100 | > 100 | > 100 | > 100 | > 100 | 66.8 | > 100 | > 100 | > 100
CC(C)(C)n1c(=O)n2c(-c3ccccc3)c(-c3ccccc3)n2c1=O | > 100 | > 100 | > 100 | > 100 | > 100 | > 100 | > 100 | > 100 | > 100 | > 100 | > 100
COc1ccc(NC(=S)c2ccc([N+](=O)[O-])o2)cc1 | 5.89 | 7.28 | 12.2 | 7.2 | 4.99 | > 43.1 | 11.7 | 4.69 | 4.42 | 6.11 | 14.1
COc1ccc(OC/C(N)=N/NC(=O)c2ccncc2)cc1 | > 100 | > 100 | > 100 | > 100 | > 100 | > 100 | > 100 | > 100 | > 100 | > 100 | > 100
CN(/N=C/c1ccccn1)C1=NCCN1 | > 100 | > 100 | > 100 | > 100 | > 100 | > 100 | > 100 | > 100 | > 100 | > 100 | > 100
NCCc1ccc(S(=O)(=O)O)cc1[N+](=O)[O-] | > 100 | > 100 | > 100 | > 100 | > 100 | > 100 | > 100 | > 100 | > 100 | > 100 | > 100
Clc1ccc(C(OCn2ccnc2)c2nc3ccccc3[nH]2)c(Cl)c1 (stereo not given) | > 100 | > 100 | > 100 | > 100 | > 100 | > 100 | > 100 | 81.7 | > 100 | > 100 | > 100
Cc1nc2ccc(S(=O)(=O)O)cc2c(=O)n1-c1ccc(C(=O)NN2C(=O)C(Cl)C2c2cccs2)cc1 (stereo not given) | 51.8 | 41.4 | > 100 | > 100 | > 100 | > 100 | > 100 | > 100 | > 100 | 80.2 | > 100
COc1cc(CCN)c(OC)c(OC)c1 | > 100 | > 100 | > 100 | > 100 | > 100 | > 100 | > 100 | > 100 | > 100 | > 100 | > 100
N/C(=N\N=C\c1nc2ccccc2o1)c1cnccn1 | > 100 | > 100 | > 100 | > 100 | > 100 | > 100 | > 100 | > 100 | > 100 | > 100 | > 100
COc1ccc(OC)c(/C=C2/C(=O)N=C(NC(C)=O)N2C)c1 | > 100 | > 100 | > 100 | > 100 | > 100 | > 100 | > 100 | > 100 | > 100 | > 100 | > 100
C[C@H]1CCC/C=C/[C@@H]2C[C@H](OC(=O)CN(C)C)C[C@H]2[C@H](O)/C=C/C(=O)O1 | 6.2 | > 19.9 | 0.326 | 27.8 | > 100 | > 10.5 | > 100 | > 71 | 4.31 | > 100 | > 44.9
CC(=O)Nc1nc2c(=O)c3ccccc3sc2s1 | > 100 | > 100 | > 100 | > 100 | > 100 | > 100 | > 100 | > 100 | > 100 | > 100 | > 100

Structure (SMILES) | TGI (HL-60(TB) leukemia) [µM] | TGI (M14 melanoma) [µM] | TGI (NCI/ADR-RES ovarian) [µM] | TGI (UACC-257 melanoma) [µM] | TGI (786-0 renal) [µM] | TGI (HS 578T breast) [µM] | TGI (SNB-19 CNS) [µM] | TGI (BT-549 breast) [µM] | TGI (MCF7 breast) [µM] | TGI (MDA-N) [µM] | TGI (CAKI-1 renal) [µM]
NC(CCC(=O)O)C(=O)NC(Cc1ccc(N(CCCl)CCCl)cc1)C(=O)O (stereo not given) | > 100 | > 100 | > 100 | > 100 | > 100 | > 100 | > 100 | > 100 | > 100 | > 100 | > 100
CC1(c2ccc(Cl)cc2)C=C(c2ccc(Cl)cc2)C(C#N)=C(C(C#N)C#N)N1 (stereo not given) | 41.1 | 36 | 39.9 | 37.3 | 26.9 | 29.4 | 37.2 | 43.3 | 37.3 | 31.8 | 32.2
CC(C)C(=O)Cc1ccc2ccccc2n1 | > 100 | > 100 | > 100 | > 100 | > 100 | > 100 | > 100 | > 100 | > 100 | > 100 | > 100
N#CC1=C(S)N(C2OC(CO)C(O)C(O)C2O)C(c2ccccc2)=CC1c1ccco1 (stereo not given) | > 100 | > 100 | > 100 | > 100 | > 100 | > 100 | > 100 | > 100 | > 100 | > 100 | > 100
C=CCN(c1cc(O)c2c(c(C)cn2S(=O)(=O)c2ccccc2)c1[N+](=O)[O-])S(C)(=O)=O | > 100 | > 100 | > 100 | > 100 | > 100 | > 100 | > 100 | > 100 | > 100 | > 100 | > 100
NS(=O)(=O)c1c(O)c2ccccc2oc1=O | > 100 | > 100 | > 100 | > 100 | > 100 | > 100 | > 100 | > 100 | > 100 | > 100 | > 100
CC1C(OS(=O)(=O)c2ccc3[nH]c(=S)sc3c2)CC2C3(C)CCC2(C(C)C(=O)O)C(O)C13 (stereo not given) | 58 | 84.1 | > 100 | > 100 | 56.8 | > 100 | > 100 | 66 | > 100 | 69.8 | 64.3
CC[C@@H]1CC[C@@H]2[C@H](CC[C@]3(C)[C@@H](O[N+](=O)[O-])CC[C@@H]23)[C@H]1C(C)=O | 37 | > 100 | > 100 | 55 | > 100 | > 100 | > 100 | > 100 | 83.1 | > 100 | > 100
COC(=O)c1c(C)cccc1C1CN=NC12Cc1cc(C)c(C)cc1C2=O (stereo not given) | 45.5 | > 100 | > 100 | > 100 | > 100 | > 100 | > 100 | > 100 | > 100 | 99.5 | > 100
COc1cc(S(=O)(=O)Nc2nc(-c3ccc(N=Cc4ccccc4O)cc3)cs2)ccc1Cl | > 100 | > 100 | > 100 | > 100 | > 100 | > 100 | > 100 | > 100 | > 100 | > 100 | > 100
C(=NC12CC3CC(CC(C3)C1)C2)C1CCCCC1 | > 100 | > 100 | > 100 | > 100 | > 100 | > 100 | > 100 | > 100 | > 100 | > 100 | > 100
CO/C(N)=C(\C#N)N=Cc1ccsc1 | 45.9 | > 100 | > 100 | > 100 | > 100 | > 100 | > 100 | 69.7 | > 100 | > 100 | > 100
CCCCCC(=O)OC[n+]1cccc(-c2c(COC(=O)NC(C)C)c(COC(=O)NC(C)C)c3n2CCC3)c1 | > 100 | > 100 | > 100 | > 100 | > 100 | > 100 | > 100 | > 100 | > 100 | > 100 | > 53.9
O=[N+]([O-])c1ccc2c3c1[C@@H]1O[C@@H]1c1cccc(c1-3)[C@@H]1O[C@H]21 | 7.58 | 9.9 | > 38.5 | > 25.1 | 7.85 | 19.7 | > 58.5 | 21.1 | > 100 | 10.5 | 3.2
COC(=O)C(=O)C(C(=O)C(=O)Nc1cccc(OC)c1)c1nc2ccc(Cl)cc2[nH]c1=O (stereo not given) | > 100 | > 100 | > 100 | > 100 | > 100 | > 100 | > 100 | > 100 | > 100 | > 100 | > 100
O=C(Nc1ccc(Cl)cc1Cl)C1C(=O)OC2(CCCCC2)OC1=O | 29.9 | 30.1 | 26.4 | 30.1 | 30.3 | 64.9 | > 100 | 26.7 | 29.6 | 61.2 | 22.5
O=C(OC1OC2COC(=O)c3cc(O)c(O)c(O)c3-c3c(cc(O)c(O)c3O)C(=O)OC3C2OC(=O)[C@@]24CC(=O)[C@@](O)(OC25C(=O)O[C@H]2[C@@H](O)CO[C@@]25O)C2(O)Oc5c(O)c(O)cc(c5C24)C(=O)OC13)c1cc(O)c(O)c(O)c1 (stereo not given in full) | 92.3 | > 100 | > 100 | > 100 | > 100 | > 100 | > 100 | > 100 | 29.1 | > 100 | 32.1
